Consider 78 molecules from the METLIN SMRT retention time set (Domingo-Almenara et al. 2019).

Each structure is given as a SMILES string.

This data set in a line: gradient 5% acetonitrile 3 min, to 50% in 2 min, to 85% in 15 min, held 3 min, 100 µL/min. The conditions noted are these: column: Zorbax Extend-C18 2.1 x 50 mm; eluents: water / acetonitrile, 0.1% formic acid. A digest of the protocol: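 In both positive and negative ionization mode, a quadrupole time-of-flight mass spectrometer coupled to HPLC analyzed pure standards run in mixtures of ~100 molecules. The Zorbax Extend-C18 column (2.1 × 50 mm, 1.8 μm) was operated at 100 μL/min with water and acetonitrile, each containing 0.1% formic acid. The dead volume was 40 μL and the dwell volume 900 μL. Retention time came from adduct peaks that were computationally picked and individually inspected by hand.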
Consider `Cn1c(=O)n(C)c2cc(S(=O)(=O)NCc3ccco3)ccc21`, for which the RP-LC retention time was found to be 636 s. On to `Cc1ccc(NC(=O)N2CCC(c3cc(N)on3)CC2)cc1C`, for which the RP-LC retention time was 728 s. To `CCC(=O)N1CCc2cc(CNS(=O)(=O)c3ccc(F)cc3)ccc21` belongs 838 s; to `CCOC(=O)c1nc(Nc2cccc(SC)c2)c2ccccc2n1`, 940 s; to `COc1ccccc1NC(=O)Nc1c(-c2ccc(C)cc2)nc2ccccn12`, 700 s. To `CCc1nn2c(CNS(=O)(=O)c3ccc(Cl)cc3C)c(-c3ccccc3)nc2s1` belongs 1050 s; to `CCN(Cc1ccccc1)C(=O)C1CCN(S(=O)(=O)c2ccc3c(c2)sc(=O)n3CC)CC1`, 953 s; to `Cc1ccc2c(C(=O)NCCc3cccs3)cc(NC(=O)C(C)C)cc2n1`, 643 s. To `Cc1ccc(CNC(=O)c2cc3n(n2)CC(C)(C(=O)NCCC(C)C)N(C)C3=O)cc1` (stereo not drawn) belongs 802 s. For the molecule `CCc1ccc(NC(=O)Cn2nc(C(=O)N3CCCC3)c3ccccc32)cc1`, the RP-LC retention time worked out at 917 s. For `CCOc1ccc(-c2nc(COc3cc(C(F)(F)F)c4c(C)nn(C)c4n3)c(C)o2)cc1OC` the value was 1330 s; for `Cn1cc(S(=O)(=O)N2CCC(C(=O)NC3CCCCCC3)CC2)cc1C(=O)N1CCCC1`, 770 s; for `COCCNC(=O)C1CCCN(C(=O)c2cccc(C(F)(F)F)c2)C1` (stereo not drawn), 693 s.

Molecule `O=C(c1ccc(F)cc1)N1CCCC(c2nnc(-c3ccccc3)o2)C1` (stereo not drawn) had an RP-LC retention time of 819 s.

The molecule `CCc1ccc(C(C)NC(=O)c2nnc(-c3ccc(S(=O)(=O)N(C)C)cc3)o2)cc1` (stereo not drawn) came in with an RP-LC retention time of 1010 s. To `Cc1csc(-c2cc(S(=O)(=O)NC3CC3)c(C)n2C)n1` belongs 809 s. `CCc1nc2ccccc2c(=O)n1Cc1noc(-c2cccc(OC)c2OC)n1` showed an RP-LC retention time of 872 s. `CN(C)S(=O)(=O)c1ccc(-c2nnc(C(=O)NCCN3CCc4ccccc4C3)o2)cc1` registered an RP-LC retention time of 642 s. To `CCCn1cc(C(=O)Nc2cccc(OC)c2)c(=O)c2ccc(C)nc21` belongs 1130 s.

As to `COc1ccc(Nc2c(-c3ccc(N4CCOCC4)cc3)nc3cnccn23)cc1OC`, the RP-LC retention time turned out to be 674 s. To `Cc1cc(C2CCCN2C(=O)Cc2ccc(Cl)cc2)no1` (stereo not drawn) belongs 824 s; to `COc1ccc(-n2c(=O)c(C(=O)NC3CCCCC3)c(O)c3cccnc32)cc1`, 1300 s. Consider `Cc1nnc2c(=O)n(CC(=O)NCc3ccccc3Cl)c3cccnc3n12`, for which the RP-LC retention time worked out at 693 s. For `O=C(Nc1cccc(-c2cn3c(n2)SCC3)c1)c1cc(-c2ccco2)on1` the value was 667 s. For `O=C(N[C@H]1C[C@@H]2C[C@H]1CN2S(=O)(=O)c1cccc2nsnc12)c1ccccc1` the value was 722 s; for `CN1CCn2cc(S(=O)(=O)Nc3ccc(Cl)cc3)cc2C1=O`, 720 s; for `COc1cc(CNCCc2ccc(S(N)(=O)=O)cc2)ccc1Oc1nnnn1-c1ccccc1`, 672 s. In turn, `Cc1oc(C(=O)O)cc1COc1ccc2c(oc(=O)c3ccccc32)c1C` returned an RP-LC retention time of 927 s. To `Clc1ccc(Cc2nnc3sc(-c4ccc5ccccc5n4)nn23)cc1` belongs 1210 s; to `Cc1ccc(-c2nc3ncccn3c2Nc2ccc(C)c(C)c2)cc1`, 848 s; to `CCC(C(=O)NC1(c2nc(-c3cccnc3)no2)CCCCC1)c1ccccc1` (stereo not drawn), 1010 s.

`O=C(NC1CCCC1)N1CCC(c2nc(C3CCOCC3)no2)CC1` came in with an RP-LC retention time of 691 s. To `CCCNc1nc(N)c2ccccc2n1` belongs 573 s; to `Cc1cnn(CC(=O)N2CC(n3cc(COc4ccc(F)cc4)nn3)C2)c1`, 714 s. For `Cn1nc(C(=O)NCC2(C)CCOCC2)c2ccccc21` the value was 763 s; for `COc1ccc(CCC(=O)Nc2nc(-c3ccc(Cl)cc3)cs2)cc1`, 1120 s; for `COC[C@@H]1CN(Cc2c(C)n[nH]c2C)C[C@H]1c1ccncc1`, 559 s. `Cc1cc(NCCCn2ccnc2)n2nc(C(F)(F)F)c(-c3ccccc3)c2n1` registered an RP-LC retention time of 591 s. For `CCc1ccc(NC(=O)NCc2ccnc(N3CCSCC3)c2)cc1` the value was 668 s. To `Cc1ccc(C)c(NC(=O)Nc2cccc(-c3cn4cccnc4n3)c2)c1` belongs 696 s. To `C[C@H]1C[C@H]2[C@@H]3CCC4=CC(=O)C=C[C@]4(C)[C@H]3C(=O)C[C@]2(C)[C@@]1(O)C(=O)CO` belongs 775 s; to `CCCOc1ccc(CN2C[C@@H]3C(=O)N(CCCN4CCCC4=O)C(=O)[C@@H]3C2)cc1`, 630 s; to `CNC(=O)N1CCCC(c2cccc(C(=O)NC(C)c3ccc(F)cc3)c2)C1` (stereo not drawn), 792 s. `COC(=O)c1cc(C)nc2c1c(=O)n(Cc1cccc(C)c1)c(=O)n2Cc1ccco1` gave an RP-LC retention time of 1170 s. For `CC(NC(=O)c1c(O)c2sccc2n(Cc2ccccc2)c1=O)c1ccccc1` (stereo not drawn) the value was 1350 s; for `CCS(=O)(=O)N1CC(=O)N(c2ccc(F)cc2)C(C)(C(=O)NCc2ccc(F)cc2)C1` (stereo not drawn), 743 s; for `Cc1cccc(CN2CCCN(c3ncccc3-c3nc(C(C)C)no3)CC2)c1`, 733 s. For `COc1ccc(-c2nc(COc3cc(C(F)(F)F)c4c(C)nn(C)c4n3)c(C)o2)cc1OC` the value was 1190 s; for `c1ccc(-n2ncc3c(Nc4ccc5c(c4)OCO5)nc(N4CCCC4)nc32)cc1`, 1350 s.

The molecule `Cc1ccc2c(c1)c1nc3ccccc3nc1n2CC(=O)O` displayed an RP-LC retention time of 721 s. As for `Cc1nc(C)c(-c2nnc(NC(=O)C3CC(=O)N(c4ccc(F)cc4)C3)o2)s1` (stereo not drawn), the RP-LC retention time is 652 s. To `CCCN1CCc2cc(O)cc3c2[C@H]1Cc1ccc(O)c(O)c1-3` belongs 646 s; to `COc1ccc(-c2ccc(=O)n(CCCNC(=O)c3ccc(S(N)(=O)=O)cc3)n2)cc1`, 812 s. Regarding `O=S(=O)(c1ccc(-c2noc(-c3ccc(Cl)cc3)n2)cc1)N1CCCC1`, the RP-LC retention time stood at 1260 s.

Molecule `O=C(NCc1ccccn1)C1c2ccccc2C(=O)N(C2CCCC2)C1c1cccs1` (stereo not drawn) gave an RP-LC retention time of 709 s.

With `CCc1ccc(-c2nc(-c3ccc4nnn(C)c4c3)no2)cc1`, the RP-LC retention time was determined as 1150 s. For `CN(Cc1ccccc1)C(=O)Cn1c(=O)c2cnc(-c3ccc(Cl)cc3)nc2n(C)c1=O` the value was 1120 s; for `CC(C)n1nnc2ccc(-c3noc(-c4ccccc4)n3)cc21`, 1130 s. To `COCCn1nc2n(c1=O)CCC1(CC2)CCN(C(=O)C2CCCCCC2)CC1` belongs 710 s; to `O=C(Nc1ccc(Cl)cc1)C(=O)c1cn(CC(=O)N2CCOCC2)c2ccccc12`, 959 s; to `Cc1cccnc1NC(=O)C1CCN(S(=O)(=O)c2cn(C(C)C)cn2)CC1`, 591 s. `OC1(c2ccc(Cl)cc2)CCN(Cc2c[nH]c3ccccc23)CC1` gave an RP-LC retention time of 736 s. Molecule `CCn1c(=O)sc2cc(S(=O)(=O)N3CCC(C(=O)N(C)c4ccc(C)cc4)CC3)ccc21` showed an RP-LC retention time of 953 s. For `Cc1cccc(N2C(=O)CN(CCc3ccc(F)cc3)[C@H]3CS(=O)(=O)C[C@H]32)c1` the value was 839 s; for `Cc1cccc(CN2CCn3c(nnc3[C@@H]3C[C@@H](O)CN3Cc3cccnc3)C2)c1`, 586 s; for `Cc1ccc(CN2CCCC(c3nc(C(C)C)no3)CCNC(=O)CC2)o1` (stereo not drawn), 636 s. To `Cc1ccc(CN2C(=O)Cn3cccc3C2C(=O)NC2CCCC2)cc1` (stereo not drawn) belongs 892 s. To `Cc1cc(-c2nnc(NC(=O)Cn3cnc4c3c(=O)n(C)c(=O)n4C)o2)n(C)n1` belongs 580 s; to `O=C(c1ccc2c(c1)OCO2)N1C[C@H]2C[C@H](C1)[C@H]1CCCC(=O)N1C2`, 637 s; to `O=C(c1ccsc1)N1CCc2cc(-c3csc(C4CC4)n3)ccc21`, 1120 s. On to `Cc1[nH]c(C(=O)N2CCC(CC(=O)NCCCN3CCN(c4ccc(F)cc4)CC3)CC2)c(C)c1C`, for which the RP-LC retention time came out at 675 s. To `Cc1oc(-c2ccc(C(=O)N3CCN(C)CC3)cc2)nc1CN1CCc2ccccc21` belongs 675 s. For `CCOc1cc(=O)n2c(c1C(=O)OCc1ccc(C)cc1)CCCCC2` the value was 1010 s; for `Brc1ccc(-c2nnc(SCCCCOc3ccccc3)o2)cc1`, 1280 s. To `O=C(c1ccc(-c2csc(C3CC3)n2)cc1)N1CCN(c2ccccn2)CC1` belongs 650 s. In turn, `CNC(=O)C1Cc2ccccc2CN1S(=O)(=O)c1ccc(OC)cc1` (stereo not drawn) registered an RP-LC retention time of 770 s.

Turning to `CCc1nc(OCC(=O)Nc2ccc(Cl)cc2Cl)c2ccccc2n1`, the RP-LC retention time was 937 s. In turn, `COc1ccccc1N1CCN(S(=O)(=O)c2cc(-c3cc(C(F)(F)F)on3)sc2C)CC1` gave an RP-LC retention time of 1300 s.
